From US20220112479A1, “COMPOUNDS STABILIZING AMYLASES IN LIQUIDS” (BASF SE, priority 2018, published 2022)

Target: T1, Savinase Ultra 16.0L (Lederbergia lenta, UniProt P29600)
T1 construct: purchased Sigma-Aldrich
T1 sequence (P29600 1-269): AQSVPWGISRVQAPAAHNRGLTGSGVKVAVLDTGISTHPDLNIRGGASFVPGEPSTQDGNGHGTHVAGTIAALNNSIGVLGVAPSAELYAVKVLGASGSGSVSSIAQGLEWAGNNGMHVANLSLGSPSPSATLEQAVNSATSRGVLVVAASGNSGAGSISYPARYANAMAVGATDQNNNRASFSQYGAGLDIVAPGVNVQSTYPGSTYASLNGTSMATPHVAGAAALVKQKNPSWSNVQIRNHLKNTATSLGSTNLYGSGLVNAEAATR
Test: protease storage stability in liquid formulation (Suc-AAPF-pNA substrate)
Format: biochemical
Details: storage at 37° C.
Protocol: Base test formulations were manufactured by making base formulations I to V by mixing the components according to Table 1.
Protease used: (S) Savinase Ultra 16.0L (CAS-No. 9014-01-1, EC-No. 232-752-2) was purchased from Sigma-Aldrich
The respective component (a) or comparative compound was added, if applicable, to the respective base formulation in amounts as indicated in Table 1.
The amount of protease as provided in Table 1 refers to active protein.
Water was added to accomplish the balance to 100.
Protease activity at certain points in time as indicated in Table 3 was be determined by employing Succinyl-Ala-Ala-Pro-Phe-p-nitroanilide (Suc-AAPF-pNA, short AAPF) as substrate. pNA is cleaved from the substrate molecule by proteolytic cleavage, resulting in release of yellow color of free pNA which was determined by measuring […]. Measurements were done at 20° C.
The proteolytic activity values provided in Table 3 were calculated referring to the value determined in the reference formulation at the time 0.
The nomenclature of formulations is as follows: the Roman number before the full stop characterizes the base formulation, the Arabian number the type of salt (A.#inventive salt (component (a)); B.# comparative compound). Zero (“0”): no salt, but diethylene glycol.

[1] = base formulation I., 1.5 wt % component (a), 3 d
[2] = base formulation I., 1.5 wt % component (a), 7 d
[3] = base formulation I., 1.5 wt % component (a), 14 d
[4] = base formulation I., 1.5 wt % component (a), 21 d
[5] = base formulation I., 1.5 wt % component (a), 28 d
[6] = base formulation I., 1.5 wt % component (a), 42 d
[7] = base formulation I., 1.5 wt % component (a), T0
[8] = base formulation II., 1.5 wt % component (a), 3 d
[9] = base formulation II., 1.5 wt % component (a), 7 d
[10] = base formulation II., 1.5 wt % component (a), 14 d
[11] = base formulation II., 1.5 wt % component (a), 21 d
[12] = base formulation II., 1.5 wt % component (a), 28 d
[13] = base formulation II., 1.5 wt % component (a), 42 d
[14] = base formulation II., 1.5 wt % component (a), T0
[15] = base formulation III., 1.5 wt % component (a), 3 d
[16] = base formulation III., 1.5 wt % component (a), 7 d
[17] = base formulation III., 1.5 wt % component (a), 14 d
[18] = base formulation III., 1.5 wt % component (a), 21 d
[19] = base formulation III., 1.5 wt % component (a), 28 d
[20] = base formulation III., 1.5 wt % component (a), 42 d
[21] = base formulation III., 1.5 wt % component (a), T0
[22] = base formulation IV., 2.0 wt % component (a), 3 d
[23] = base formulation IV., 2.0 wt % component (a), 7 d
[24] = base formulation IV., 2.0 wt % component (a), 14 d
[25] = base formulation IV., 2.0 wt % component (a), 21 d
[26] = base formulation IV., 2.0 wt % component (a), 28 d
[27] = base formulation IV., 2.0 wt % component (a), 42 d
[28] = base formulation IV., 2.0 wt % component (a), T0
[29] = base formulation V., 2.0 wt % component (a), 3 d
[30] = base formulation V., 2.0 wt % component (a), 7 d
[31] = base formulation V., 2.0 wt % component (a), 14 d
[32] = base formulation V., 2.0 wt % component (a), 21 d
[33] = base formulation V., 2.0 wt % component (a), 28 d
[34] = base formulation V., 2.0 wt % component (a), 42 d
[35] = base formulation V., 2.0 wt % component (a), T0

| Molecule | protease activity, referring to reference formulation at time 0 [1] | protease activity, referring to reference formulation at time 0 [2] | protease activity, referring to reference formulation at time 0 [3] | protease activity, referring to reference formulation at time 0 [4] | protease activity, referring to reference formulation at time 0 [5] | protease activity, referring to reference formulation at time 0 [6] | protease activity, referring to reference formulation at time 0 [7] | protease activity, referring to reference formulation at time 0 [8] | protease activity, referring to reference formulation at time 0 [9] | protease activity, referring to reference formulation at time 0 [10] | protease activity, referring to reference formulation at time 0 [11] | protease activity, referring to reference formulation at time 0 [12] | protease activity, referring to reference formulation at time 0 [13] | protease activity, referring to reference formulation at time 0 [15] | protease activity, referring to reference formulation at time 0 [16] | protease activity, referring to reference formulation at time 0 [17] | protease activity, referring to reference formulation at time 0 [18] | protease activity, referring to reference formulation at time 0 [19] | protease activity, referring to reference formulation at time 0 [20] | protease activity, referring to reference formulation at time 0 [21] | other results |
| --- | --- | --- | --- | --- | --- | --- | --- | --- | --- | --- | --- | --- | --- | --- | --- | --- | --- | --- | --- | --- | --- |
| CCOC(=O)CC(O)(CC(=O)OCC)C(=O)OCC [A.1, Triethylcitrate] | 97 | 94 | 89 | 83 | 79 | 67 | 100 | 99 | 96 | 90 | 85 | 80 | 69 | 99 | 93 | 88 | 85 | 74 | 67 | 100 | protease activity, referring to reference formulation at time 0 [14]: 100; protease activity, referring to reference formulation at time 0 [22]: 96; protease activity, referring to reference formulation at time 0 [23]: 92; protease activity, referring to reference formulation at time 0 [24]: 86; protease activity, referring to reference formulation at time 0 [25]: 80; protease activity, referring to reference formulation at time 0 [26]: 72; protease activity, referring to reference formulation at time 0 [27]: 65; protease activity, referring to reference formulation at time 0 [28]: 98; protease activity, referring to reference formulation at time 0 [29]: 94; protease activity, referring to reference formulation at time 0 [30]: 90; protease activity, referring to reference formulation at time 0 [31]: 85; protease activity, referring to reference formulation at time 0 [32]: 81; protease activity, referring to reference formulation at time 0 [33]: 75; protease activity, referring to reference formulation at time 0 [34]: 65; protease activity, referring to reference formulation at time 0 [35]: 99 |
| CCCOC(=O)CC(O)(CC(=O)OCCC)C(=O)OCCC [A.2, Tripropylcitrate] | 100 | 95 | 90 | 85 | 81 | 71 | 101 | 100 | 96 | 91 | 87 | 83 | 72 | 100 | 95 | 93 | 88 | 83 | 73 | 101 | protease activity, referring to reference formulation at time 0 [14]: 101; protease activity, referring to reference formulation at time 0 [29]: 95; protease activity, referring to reference formulation at time 0 [30]: 92; protease activity, referring to reference formulation at time 0 [31]: 87; protease activity, referring to reference formulation at time 0 [32]: 82; protease activity, referring to reference formulation at time 0 [33]: 77; protease activity, referring to reference formulation at time 0 [34]: 70; protease activity, referring to reference formulation at time 0 [35]: 100 |
| CCOC(=O)CC(CC(=O)OCC)(OC(C)=O)C(=O)OCC [A.5, Acetyltriethylcitrate] | 96 | 90 | 84 | 80 | 76 | 62 | 98 |  |  |  |  |  |  | 98 | 92 | 83 | 79 | 71 | 65 | 100 |  |
| Diethylcitrate [A.7] | 94 | 91 | 85 | 81 | 76 | 63 | 100 | 98 | 93 | 88 | 85 | 80 | 71 | 97 | 95 | 92 | 87 | 74 | 64 | 100 | protease activity, referring to reference formulation at time 0 [14]: 100; protease activity, referring to reference formulation at time 0 [22]: 96; protease activity, referring to reference formulation at time 0 [23]: 88; protease activity, referring to reference formulation at time 0 [24]: 79; protease activity, referring to reference formulation at time 0 [25]: 74; protease activity, referring to reference formulation at time 0 [26]: 68; protease activity, referring to reference formulation at time 0 [27]: 62; protease activity, referring to reference formulation at time 0 [28]: 98; protease activity, referring to reference formulation at time 0 [29]: 93; protease activity, referring to reference formulation at time 0 [30]: 88; protease activity, referring to reference formulation at time 0 [31]: 79; protease activity, referring to reference formulation at time 0 [32]: 72; protease activity, referring to reference formulation at time 0 [33]: 66; protease activity, referring to reference formulation at time 0 [34]: 54; protease activity, referring to reference formulation at time 0 [35]: 97 |
